Data as given in patent publication US12281161B2, “Polypeptides and uses thereof” (TRUSTEES OF BOSTON UNIVERSITY, priority 2021, dated 2025).
Where a SMILES comes first, the peptide text is derived from it. [ ]: non-standard residue; d: D form. The star is where a group is joined. Dolaproine = CO[C@@H]([C@@H]1CCCN1)[C@@H](C)C(=O)O; Dil = CC[C@H](C)[C@H](NC)[C@@H](CC(=O)O)OC; X1 = C[C@@H](N*)[C@@H](O)c1ccccc1; NMeV = CN[C@H](C(=O)O)C(C)C

B1: AFC (conjugate)
heavy: EVQLQQSGPDLVKPGASMKISCKASGYSFTDYTMHWVKQSHGKNFEWIGLINPYNDGTTYNQKFKGKATLTVDKSSSTAYMELLSLTSEDSAVYYCASLDYWGQGTSVTVSSAKTTPPSVYPLAPGSAAQTNSMVTLGCLVKGYFPEPVTVTWNSGSLSSGVHTFPAVLQSDLYTLSSSVTVPSSTWPSETVTCNVAHPASSTKVDKKIVPRDCGCKPCICTVPEVSSVFIFPPKPKDVLTITLTPKVTCVVVDISKDDPEVQFSWFVDDVEVHTAQTQPREEQFNSTFRSVSELPIMHQDWLNGKEFKCRVNSAAFPAPIEKTISKTKGRPKAPQVYTIPPPKEQMAKDKVSLTCMITDFFPEDITVEWQWNGQPAENYKNTQPIMDTDGSYFVYSKLNVQKSNWEAGNTFTCSVLHEGLHNHHTEKSLSHSPGKGGGGGMKLKKIKSVLKKIKSVLKKIKSVLKKIKSVVGER
light: DVVMTQTPLSLPVSLGDQASISCRSSQSLVHSSGNTYLHWYLQKPGQSPKLLIYKVSNRFSGVPDRFSGSGSGTDFTLKISRVEAEDLGVYFCSQSTHVPYTFGGGTKLEIKRADAAPTVSIFPPSSEQLTSGGASVVCFLNNFYPKDINVKWKIDGSERQNGVLNSWTDQDSKDSTYSMSSTLTLTKDEYERHNSYTCEATHKTSTSPIVKSFNRNEC
peptide: MKLEEIVSELEEIVSELEEIVKELEEIVYEVGER

Columns and labels:
NCI-H226 = assay: preliminary toxicity study of MMAE in NSCLC line; assay type: cell-based, human
Excerpt: (§1) There are various linker chemistries for ADCs in use clinically and being investigated, as described in Chapter One. A common motif in ADCs is the valine-citrulline dipeptide which is recognized by human Cathepsin B, a lysosomal enzyme. The full motif typically used is valine-citrulline-p-aminobenzylcarbamate-monomethyl auristin E (vc-MMAE). […] The vc-MMAE structure is used in several FDA approved ADCs (brentuximab vedotin, polatuzumab vedotin, enfortumab vedotin) which target both hematologic and solid tumors.

NCI-H520 [1] = assay: preliminary toxicity study of MMAE in NSCLC line; assay type: cell-based, human
Excerpt: as §1

NHLF = assay: in vitro cytotoxicity (MTT); assay type: cell-based, human
Description: (§2) We utilized two different incubation methods.
(§3) We then incubated the human cell lines with ADC, and equivalent concentrations of MMAE and native Ab for both 48 hours and 72 hours, the results of which can be seen in FIG. 13A-13E. We expected the results to correlate with the GPR87 expression we observed by flow cytometry. For the normal cell lines, this was the case. As detailed in FIG. 14, the line that was most sensitive to the ADC were the NHLFs, followed by the BEAS-2Bs, and the line with the lowest GPR87 expression, the HUVECs, had the highest IC50 after 72 hours. However, both the NSCLC cell lines had relatively high IC50s given the GPR87 expression status of these lines.
(§4) Standard cytotoxicity assays, like the MTT assays ran here, measure or rather, approximate the cell number at an end point and compare to control untreated cells. Effectively what is measured is a comparison between growth rates. When comparing the efficacy of a drug, particularly a mitotic inhibitor, among different cell lines, division rate differences due to biology, media additives, or seeding density can have a dramatic effect on the IC50, an issue brought up by Hafner et al. They reported with both modeling and in vitro assays how using the IC50 as a metric can actually mask the true mechanism of a drug, for example the microtubule inhibitor paclitaxel. […] GR values indicate whether a drug inhibits growth (0<GR<1), is cytostatic (GR=0) or cytotoxic (GR<0). To calculate this parameter, one needs cell count data for at least two different time points and compares experimental growth rates to the growth rate of control cells. […] Consequently, we reviewed the data at our two time points to perform a similar analysis. We plated at the same seeding density for both the 48 and 72 hour time points. As MTT is an endpoint assay rather than a kinetic assay like MTS, we can use MTT signal as a proxy for cell count. […] Therefore, we excluded this cell line from our analysis. We are technically assessing the effect the ADC or equivalent MMAE has on the growth rate of cells at 60 hours, as we are measuring at t=x±delta t, with x being 60 and delta t being 12 hours. Ideally, we would assess an earlier time point or even multiple time points. […] (FIGS. 19A-19D). Conversely, both NCI-H520 and NCI-H358 are cytotoxic (GR<0) at higher concentrations of ADC at this time point. […] While the GR50 data is still not in agreement with GPR87 expression, it does indicate that this type of analysis at other, earlier, time points is useful in assessing the dynamics of ADC and MMAE cytotoxicity in these cell lines.

BEAS-2B = assay: in vitro cytotoxicity (MTT); assay type: cell-based, human
Description: as §2, §3, §4

NCI-H520 [2] = assay: in vitro cytotoxicity (MTT); assay type: cell-based, human; conditions: NCI-H520
Description: as §2, §3
In comparison, NCI-H358 and NCI-H520 see approximately a 4-fold or 2-fold decrease in IC50, respectively, between the two time points. On the other hand, the NCI-H520 line has almost a 10-fold increase in MMAE IC50 at 72 hours compared to 48 hours. The results are likely because the cell lines are different sizes and morphologies and therefore are at different confluencies when plated at the same number of cells per well and are therefore likely to be in different parts of their log growth phase during treatment. For example, the NSCLC lines are typically at very low confluency at a plating density of 5,000 cells per well and may not reach log phase growth until later in the assay. As MMAE affects actively dividing cells, this will affect the results of the assay. While 72 hours was not the optimized end time point for all five cell lines, in order to have a standardized cell plating density, and therefore same ADC:cell ratio, going past 72 hours for some of the cell lines would lead to confluency or death in untreated control cells, which would also confound results. Thus, we incubated the two NSCLC lines for longer periods of time to allow the control cells to become more confluent by the assay endpoint, and to see how this would affect the ADC IC50.
as §4

SKBR-3 = assay: in vitro toxicity of αHER2-P3 based ADC; conditions: SKBR-3, 72 h, up to 10 μg/ml ADC (equivalent to 100 ng/ml MMAE)
Description: (§6) The toxicity of the new ADC was investigated in vitro in the HER2-positive cell lines: SKBR-3 and A549. We treated the cells with up to 10 μg/ml of ADC (equivalent to 100 ng/ml of MMAE) along with native antibodies and free drug at equivalent concentrations.

A549 = assay: in vitro toxicity of αHER2-P3 based ADC; conditions: A549, 72 h, up to 10 μg/ml ADC (equivalent to 100 ng/ml MMAE)
Description: as §6

NIH-3T3 = assay: in vitro cytotoxicity, negative control line; conditions: NIH-3T3, up to 10 μg/ml ADC or equivalent concentrations, 72 hours
Description: We incubated NIH-3T3s with up to 10 μg/ml of ADC (67 nM, equivalent to 96 ng/ml of MMAE) along with the native antibody and MMAE alone at equivalent concentrations.

[3] = preliminary AFC clearance and biodistribution in PDX tumor bearing NSG mice, ELISA; assay type: in vivo; conditions: 10 mg/kg
Description: We had access to a stage four mucinous lung adenocarcinoma patient derived xenograft (PDX) model. We assessed the GPR87 positivity in the tumor and found it to be positive for GPR87. (FIG. 19A) We ran a preliminary study using the AFC to determine whether the AFC would traffic to the tumor in vivo. Twenty-four hours following injection in the tail at 2.5 mg/kg, the tail, tumor, and major organs were collected and imaged with an IVIS system. […] (FIG. 19B) We moved forward with a preliminary study of the AFC in PDX tumor bearing NSG mice. Four mice were injected with 10 mg/kg of AFC once the tumor reached approximately 200-300 mm^3 and blood was drawn at 4 hours, 3 days, and 2 weeks. The mice were intended to be kept for 2 weeks, but one animal had to be euthanized at day 3 due to tumor size. At the 2-week time point, we euthanized the other animals and harvested the organs. The plasma and organ AFC levels were analyzed by a custom ELISA which detects intact AFC, as described in Chapter Four. The results are seen in FIG. 20A. […] We also ran an ELISA with an anti-mouse IgG secondary to determine the total Ab concentrations and assess whether the AFC was being cleared or was not stable (FIG. 20B). The Ab readout detected a higher concentration of Ab than AFC, however, the general trend of clearance is maintained. The concentration even by 3 days is markedly low for our AFC. Whereas we detect <1 μg/ml of AFC at 3 days by either AFC or Ab readout, levels above 10 μg/ml have been reported with similar ADC DAR ratio (˜2) and dose (10 mg/kg). However we are utilizing NSG mice to facilitate the PDX model. It has been reported that NSG mice have enhanced clearance rates of both antibodies and ADCs. However, even in comparison to the clearance rates in NSG mice noted by Li et al., AFC clearance is fast.
We also analyzed the organs at the 3 day and 2 week time point with an ELISA (FIGS. 20C-20D).

[4] = tested on: stage four mucinous lung adenocarcinoma patient derived xenograft (PDX); assay: preliminary in vivo trafficking of AFC, IVIS imaging of PDX tumor bearing mouse; conditions: 24 hours after tail injection at 2.5 mg/kg
Description: We had access to a stage four mucinous lung adenocarcinoma patient derived xenograft (PDX) model. We assessed the GPR87 positivity in the tumor and found it to be positive for GPR87. (FIG. 19A) We ran a preliminary study using the AFC to determine whether the AFC would traffic to the tumor in vivo. Twenty-four hours following injection in the tail at 2.5 mg/kg, the tail, tumor, and major organs were collected and imaged with an IVIS system. […] (FIG. 19B) We moved forward with a preliminary study of the AFC in PDX tumor bearing NSG mice. Four mice were injected with 10 mg/kg of AFC once the tumor reached approximately 200-300 mm^3 and blood was drawn at 4 hours, 3 days, and 2 weeks. The mice were intended to be kept for 2 weeks, but one animal had to be euthanized at day 3 due to tumor size. At the 2-week time point, we euthanized the other animals and harvested the organs. The plasma and organ AFC levels were analyzed by a custom ELISA which detects intact AFC, as described in Chapter Four. The results are seen in FIG. 20A. […] The Ab readout detected a higher concentration of Ab than AFC, however, the general trend of clearance is maintained. […] Whereas we detect <1 μg/ml of AFC at 3 days by either AFC or Ab readout, levels above 10 μg/ml have been reported with similar ADC DAR ratio (˜2) and dose (10 mg/kg). […]

NCI-H358 = assay: internalization of AFC, confocal colocalization with EEA1 / LAMP1; assay type: cell-based, human; conditions: NCI-H358, 3 or 10 μg/ml, up to 4 hours
Description: (§5) The GPR87 receptor is a G-protein coupled receptor (GPCR), a class of receptors which are activated by an extracellular ligand, initiating activation of associated intracellular G proteins for downstream signaling. Following activation, GPCRs are often internalized and recycled to prevent prolonged stimulation. […] Therefore, we wanted to confirm the uptake of our αGPR87 AFC in the two GPR87 high expressing NSCLC cell lines, NCI-H358 and NCI-H520. We cocultured the cells with 3 μg/ml of AFC for either 30 minutes or 1 hour and fixed and permeabilized the cells before immunofluorescently staining for either the early endosomal marker EEA1 or the lysosomal marker LAMP1. Shown in FIG. 11 are the images from these studies with the AFC signal, either the EEA1 or LAMP1 signal, and DAPI. The merged images are shown as well as the AFC and either EEA1 or LAMP1 signals merged, with colocalization. […] To investigate this further, we increased the concentration of AFC to 10 μg/ml and increased the incubation times to 1, 2, and 4 hours. […] By 2 hours, the AFC now is highly colocalized with the lysosomes and further colocalizes by the 4-hour timepoint while also showing less of a membranous staining pattern. From these analyses, we can determine that the AFC is indeed internalized by the human NSCLC cancer cell lines NCI-H520 and NCI-H358, albeit with different apparent kinetics.

NCI-H520 [5] = assay: as above; assay type: cell-based, human; conditions: NCI-H520, 3 μg/ml, 30 minutes and 1 hour
Description: as §5

[6] = AFC concentration in blood plasma of Balb/c mice, ELISA; assay type: in vivo; conditions: 10 mg/kg, samples at 1 hour, 7 and 14 days
Description: To make sure that the coiled-coil has no significant effect on antibody clearance, we performed a preliminary study of AFC concentration in blood plasma (FIG. 33). 10 mg/kg AFC was injected into two Balb/c mice. Blood samples were collected at 1 hour, 7 and 14 days and examined for AFC concentration by ELISA assay.

Molecule	IC50 (NCI-H226)	IC50 (NCI-H520 [1])	GR50 (NHLF)	GR50 (BEAS-2B)	increase in IC50 at 72 hours compared to 48 hours (NCI-H520 [2])	cell viability (SKBR-3)	cell viability (A549)	cytotoxicity (NIH-3T3)	plasma concentration at 3 days ([3]; by either AFC or Ab readout)	concentration in tumor and organs ([3]; compared to liver, kidney, spleen, heart and lung, preliminary)	clearance ([3]; plasma at 4 hours, 3 days, 2 weeks)	fluorescence of tail, tumor and major organs [4]	internalization (NCI-H358)	internalization (NCI-H520 [5])	AFC concentration in plasma [6]
CC[C@H](C)[C@@H]([C@@H](CC(=O)N1CCC[C@H]1[C@H](OC)[C@@H](C)C(=O)N[C@H](C)[C@@H](O)c1ccccc1)OC)N(C)C(=O)[C@@H](NC(=O)[C@@H](NC)C(C)C)C(C)C [MMAE, Monomethyl auristatin E, reference compound] (H-[NMeV]V[Dil][Dolaproine]-X1)	0.294 nM	0.042 nM	do not reach that value	cannot be calculated	~10 fold	20%	20%	highly toxic							
B1									< 1000 ng/mL	highest in the tumor at 3 days and at 2 weeks	rapidly cleared	tail (injection site) and tumor both showed high fluorescence, with little fluorescence in the major organs	internalized	internalized	A small amount of AFC was detected in plasma after 7 days
